Reference: the supplement of paper PMC10307832

Legend:
Experiment in all cases: relative viability (nuclei count vs DMSO), 5 days (fraction); higher = more cells survive
[1] = system: ChaGo-K-1
Outline: (§1)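 Medians of duplicate plates are given as relative viability. That measure is the nuclei count in treated wells divided by the count in vehicle wells. Counts were taken on 4× images of lung cancer cell lines in 1536-well plates, 5 days after pin-tool dosing the day after seeding with one drug alone or a fixed anchor-drug dose plus five library-drug doses (not always all listed) in √10 steps.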

[2] = system: EMC-BAC-2
Outline: as §1

[3] = system: EPLC-272H
Outline: as §1

[4] = system: H3255
Outline: as §1

[5] = system: HCC-44
Outline: as §1

[6] = system: HCC-827
Outline: as §1

[7] = system: LCLC-103H
Outline: as §1

[8] = system: LCLC-97TM1
Outline: as §1

[9] = system: NCI-H1355
Outline: as §1

[10] = system: NCI-H1395
Outline: as §1

[11] = system: NCI-H1651
Outline: as §1

[12] = system: NCI-H1793
Outline: as §1

[13] = system: NCI-H1944
Outline: as §1

[14] = system: NCI-H2023
Outline: as §1

[15] = system: NCI-H2085
Outline: as §1

[16] = system: NCI-H2087
Outline: as §1

[17] = system: NCI-H2405
Outline: as §1

[18] = system: NCI-H322M
Outline: as §1

[19] = system: NCI-H520
Outline: as §1

[20] = system: NCI-H650
Outline: as §1

[21] = system: SK-MES-1
Outline: as §1

[22] = system: UMC-11
Outline: as §1

For `NC(=O)Nc1cc(-c2cccc(F)c2)sc1C(=O)N[C@H]1CCCNC1` [AZD7762] + CC(=O)c1c(C)c2cnc(Nc3ccc(N4CCNCC4)cn3)nc2n(C2CCCC2)c1=O [Palbociclib] (partner 0.5 µM), the relative viability ([1]; first compound 0.01 µM) was 1.01, the relative viability ([1]; first compound 0.03162 µM) was 0.953 and the relative viability ([1]; first compound 0.1 µM) was 0.958. The relative viability ([1]; first compound 0.3162 µM) was 0.932, the relative viability ([1]; first compound 1 µM) was 1.03 and the relative viability ([2]; first compound 0.01 µM) was 0.555. It also gave a relative viability ([2]; first compound 0.03162 µM) of 0.527, a relative viability ([2]; first compound 0.1 µM) of 0.537 and a relative viability ([2]; first compound 0.3162 µM) of 0.554. The relative viability ([2]; first compound 1 µM) was 0.541, the relative viability ([3]; first compound 0.01 µM) was 0.325 and the relative viability ([3]; first compound 0.03162 µM) was 0.297. It also gave a relative viability ([3]; first compound 0.1 µM) of 0.351, a relative viability ([3]; first compound 0.3162 µM) of 0.307 and a relative viability ([3]; first compound 1 µM) of 0.362. The relative viability ([4]; first compound 0.01 µM) was 0.329, the relative viability ([4]; first compound 0.03162 µM) was 0.312 and the relative viability ([4]; first compound 0.1 µM) was 0.362. For the same compound, the relative viability ([4]; first compound 0.3162 µM) was 0.366, the relative viability ([4]; first compound 1 µM) was 0.35 and the relative viability ([5]; first compound 0.01 µM) was 1.02. For the same compound, the relative viability ([5]; first compound 0.03162 µM) was 0.923, the relative viability ([5]; first compound 0.1 µM) was 0.965 and the relative viability ([5]; first compound 0.3162 µM) was 0.93. It also gave a relative viability ([5]; first compound 1 µM) of 1.04, a relative viability ([6]; first compound 0.01 µM) of 0.544 and a relative viability ([6]; first compound 0.03162 µM) of 0.469. The relative viability ([6]; first compound 0.1 µM) was 0.486, the relative viability ([6]; first compound 0.3162 µM) was 0.498 and the relative viability ([6]; first compound 1 µM) was 0.303. For the same compound, the relative viability ([7]; first compound 0.01 µM) was 0.438, the relative viability ([7]; first compound 0.03162 µM) was 0.479 and the relative viability ([7]; first compound 0.1 µM) was 0.639. The relative viability ([7]; first compound 0.3162 µM) was 0.449, the relative viability ([7]; first compound 1 µM) was 0.544 and the relative viability ([8]; first compound 0.01 µM) was 0.214. The relative viability ([8]; first compound 0.03162 µM) was 0.221, the relative viability ([8]; first compound 0.1 µM) was 0.253 and the relative viability ([8]; first compound 0.3162 µM) was 0.28. It also gave a relative viability ([8]; first compound 1 µM) of 0.274, a relative viability ([9]; first compound 0.01 µM) of 0.415 and a relative viability ([9]; first compound 0.03162 µM) of 0.389. It also gave a relative viability ([9]; first compound 0.1 µM) of 0.389, a relative viability ([9]; first compound 0.3162 µM) of 0.418 and a relative viability ([9]; first compound 1 µM) of 0.39. For the same compound, the relative viability ([10]; first compound 0.01 µM) was 0.642, the relative viability ([10]; first compound 0.03162 µM) was 0.68 and the relative viability ([10]; first compound 0.1 µM) was 0.56. It also gave a relative viability ([10]; first compound 0.3162 µM) of 0.456, a relative viability ([10]; first compound 1 µM) of 0.363 and a relative viability ([11]; first compound 0.01 µM) of 0.574. For the same compound, the relative viability ([11]; first compound 0.03162 µM) was 0.525, the relative viability ([11]; first compound 0.1 µM) was 0.556 and the relative viability ([11]; first compound 0.3162 µM) was 0.558. It also gave a relative viability ([11]; first compound 1 µM) of 0.501, a relative viability ([12]; first compound 0.01 µM) of 0.34 and a relative viability ([12]; first compound 0.03162 µM) of 0.343. The relative viability ([12]; first compound 0.1 µM) was 0.373, the relative viability ([12]; first compound 0.3162 µM) was 0.347 and the relative viability ([12]; first compound 1 µM) was 0.225. The relative viability ([13]; first compound 0.01 µM) was 0.383, the relative viability ([13]; first compound 0.03162 µM) was 0.382 and the relative viability ([13]; first compound 0.1 µM) was 0.409. For the same compound, the relative viability ([13]; first compound 0.3162 µM) was 0.402, the relative viability ([13]; first compound 1 µM) was 0.359 and the relative viability ([14]; first compound 0.01 µM) was 0.402. For the same compound, the relative viability ([14]; first compound 0.03162 µM) was 0.377, the relative viability ([14]; first compound 0.1 µM) was 0.219 and the relative viability ([14]; first compound 0.3162 µM) was 0.162. The relative viability ([14]; first compound 1 µM) was 0.095, the relative viability ([15]; first compound 0.01 µM) was 0.478 and the relative viability ([15]; first compound 0.03162 µM) was 0.458. For the same compound, the relative viability ([15]; first compound 0.1 µM) was 0.494, the relative viability ([15]; first compound 0.3162 µM) was 0.483 and the relative viability ([15]; first compound 1 µM) was 0.544. It also gave a relative viability ([16]; first compound 0.01 µM) of 0.213, a relative viability ([16]; first compound 0.03162 µM) of 0.298 and a relative viability ([16]; first compound 0.1 µM) of 0.243. The relative viability ([16]; first compound 0.3162 µM) was 0.274, the relative viability ([16]; first compound 1 µM) was 0.317 and the relative viability ([17]; first compound 0.01 µM) was 0.516. It also gave a relative viability ([17]; first compound 0.03162 µM) of 0.538, a relative viability ([17]; first compound 0.1 µM) of 0.465 and a relative viability ([17]; first compound 0.3162 µM) of 0.507. The relative viability ([17]; first compound 1 µM) was 0.302, the relative viability ([18]; first compound 0.01 µM) was 0.477 and the relative viability ([18]; first compound 0.03162 µM) was 0.517. It also gave a relative viability ([18]; first compound 0.1 µM) of 0.465, a relative viability ([18]; first compound 0.3162 µM) of 0.523 and a relative viability ([18]; first compound 1 µM) of 0.441. It also gave a relative viability ([19]; first compound 0.01 µM) of 0.244, a relative viability ([19]; first compound 0.03162 µM) of 0.255 and a relative viability ([19]; first compound 0.1 µM) of 0.189. For the same compound, the relative viability ([19]; first compound 0.3162 µM) was 0.232, the relative viability ([19]; first compound 1 µM) was 0.189 and the relative viability ([20]; first compound 0.01 µM) was 0.377. It also gave a relative viability ([20]; first compound 0.03162 µM) of 0.374, a relative viability ([20]; first compound 0.1 µM) of 0.403 and a relative viability ([20]; first compound 0.3162 µM) of 0.38. For the same compound, the relative viability ([20]; first compound 1 µM) was 0.382, the relative viability ([21]; first compound 0.01 µM) was 0.339 and the relative viability ([21]; first compound 0.03162 µM) was 0.337. For the same compound, the relative viability ([21]; first compound 0.1 µM) was 0.328, the relative viability ([21]; first compound 0.3162 µM) was 0.279 and the relative viability ([21]; first compound 1 µM) was 0.2. For the same compound, the relative viability ([22]; first compound 0.01 µM) was 0.373, the relative viability ([22]; first compound 0.03162 µM) was 0.302 and the relative viability ([22]; first compound 0.1 µM) was 0.34. The relative viability ([22]; first compound 0.3162 µM) was 0.301 and the relative viability ([22]; first compound 1 µM) was 0.231.
